Results: patent publication US7132524B2, “Plant brassinolide responsive genes and use thereof” (National Agriculture and Bio-oriented Research Organization, priority 2002, dated 2006)
Entries after “also recorded” stand apart in the source; their conditions may differ.

B1: OsBLE1: OsBLE1 cDNA (SEQ ID NO: 1) inserted in antisense direction in binary vector pIG121-Hm under CaMV 35S promoter (nucleic acid, listed as Oryza sativa)
DNA: AATTCGGCACGAGCGGCGGCGAGAGGAGCGGCGGCGATGGGCGGCGGCGGGCACGGCGGCGGCACGACGTACAAGGGGTACACCATCCCCCACAACAAGCGCTGGCACACCGTCGCCGGCAAGGGCCTCTGCGCCGTCATGTGGTTTTGGGTTTTCTACAGGGCTAAGCAGGACGGTGCTGTTCTCTTGGGCATGCGTCATCCTTGGGATGGTCATGATGATCACTCACATGGTCATGGGCATGAGCATGAGGGATCATCATCAACATCGTCGTCTCACTAAATCAACTGCTTCTTGGCGGCTGAGGGAGACTCGCTGCTTTGGTTGTCGCGATGAAATCCTCGAAGATAATAAAGTTTCACACTATTAATTTTATTAAGATGGGTTCATGTTGTTGGCAACTGTTTAAGGCAAACTGGTTATGTATTTTGCTTTTGAGATAGCCTCCCTCGATGGAAAACCCATGTATGTTGTTGCTTATTAGGCTGTGGACATCCTTTTGGATGTAGAGGCTGGGTTTTTAATCCATTATCTAAAAAAATGTTGTTGCTTCTTCCGATCAAAAAAAAAAAAAAAAAAAAAAAAAAAAAAAAAAAAA
modifications: antisense orientation in binary vector under 35S promoter; cDNA

Legend:
[1] = system: OsBLE1 and OsBLE2 genes; assay: Northern blotting analysis of OsBLE1 and OsBLE2 expression after plant hormone treatment; assay type: in vivo, Rice (Nipponbare); conditions: for expression of OsBLE1 and OsBLE2 following hormone treatment: leaf sheath and base of leaf blades, FIG. 2B-2C
Protocol: Rice (Nipponbare) was grown at 25° C. and 75% humidity with a 12-hrs day and 12-hrs night under white fluorescent light (about 600 μmol·m^−2sec^−1). Commercially available, high quality brassinolide (BL), gibberellin (GA), and indole-3-acetic acid (IAA) were used for the present invention. The method of Chomczynski and Sacchi (Chomczynski P., Sacchi N., Ana. Biochem., 162: 156–159, 1987) was used to extract RNA for RNA blotting analysis. An mRNA purification kit oligotex-dT-30 (Takara), was used to prepare mRNA for micro-array analysis. After tissue samples were quickly frozen in liquid nitrogen, about 0.5 g of the frozen tissue was ground into powder in a mortar and pestle. Total RNA was prepared by the method of Chomczynski and Sacchi (Chomczynski P., Sacchi N., Anal. Biochem., 162: 156–159, 1987). Then, mRNA for microarray analysis was purified from the total RNA using oligotexdT kit (Takara). For Northern blot analysis, 20 μg of the total RNA were electrophoresed in a 1.2% agarose gel containing 6% formaldehyde and then transferred to a Hybond™-N^+ nylon membrane. In order to ensure equivalent amount of RNAs were electrophoresed for Northern blotting, the present inventors stained gels with ethidium bromide to compare rRNA quantity. Hybridization was carried out at 42° C. overnight using ULTRAhyb™ (Ambion), and the membrane was washed with 2×SSC and 0.1% SDS at 42° C. for 5 min, and then with 0.1×SSC and 0.1% SDS at 68° C. for 15 min. Nylon membrane was exposed to X-ray film (Kodak). The expression patterns of the 12 genes were analyzed by Northern blotting. The present inventors then found two genes whose expression occurs one to six hours after brassinolide treatment and was increased in the leaf sheath and the base of leaf blades by auxin and brassinolide treatment (FIGS. 2A–2C). The present inventors named these two genes OsBLE1 and OsBLE2.

[2] = system: 1265 rice genes (EST clones); assay: cDNA microarray analysis of rice seedling leaf blade base after brassinolide treatment; assay type: in vivo, Rice (Nipponbare); conditions: base of leaf blades of rice seedling, 1 μM brassinolide, 48 hours; depending on the concentration
Protocol: Rice (Nipponbare) was grown at 25° C. and 75% humidity with a 12-hrs day and 12-hrs night under white fluorescent light (about 600 μmol·m^−2sec^−1). Commercially available, high quality brassinolide (BL), gibberellin (GA), and indole-3-acetic acid (IAA) were used for the present invention. The method of Chomczynski and Sacchi (Chomczynski P., Sacchi N., Ana. Biochem., 162: 156–159, 1987) was used to extract RNA for RNA blotting analysis. An mRNA purification kit oligotex-dT-30 (Takara), was used to prepare mRNA for micro-array analysis. A cDNA microarray containing 1265 EST clones was used. RNA was isolated from the base of leaf blades treated with 1 μM brassinolide for 48 hours. Reverse transcription reaction was performed for two hours at 42° C. using 1 μg of mRNA in the presence of 50 μM Cy5 dCTP (Amersham Pharmacia), and then stopped. After heated at 94° C. for 3 min, the resulting mixture was treated with NaOH at 37° C. for 15 min to digest the RNA, and then cDNA was recovered. Fluorescently labeled cDNA probe was purified using a QIA quick PCR purification kit (Qiagen). […] Data were analyzed according to Array Vision (Imaging Research). Total RNA was extracted from the base of leaf blades of rice (Nipponbare) seedling treated with 1 μM brassinolide, and the RNA was analyzed using cDNA microarrays containing 1265 rice genes. […]

[3] = system: Nipponbare rice cultivar; assay: Growth of rice transformed with antisense cDNA under CaMV 35S promoter; assay type: in vivo; conditions: antisense direction in pIG121-Hm, Agrobacterium EHA101, FIGS. 5B-5C
Source text: Two different cDNAs were inserted into an expression vector in the antisense direction. The resulting vector was then introduced into Agrobacterium (EHA101). The resulting Agrobacterium was used to transform Nipponbare rice cultivar by the ultrahigh-speed transformation method for monocotyledons (Japanese Patent No. 3141084).
Both of cDNAs of OsBLE1 and OsBLE2 were modified to have SalI restriction site at their 5′ end and to have XbaI restriction sites at their 3′ ends. The modified cDNAs were then digested with XbaI and SalI and inserted into a binary vector pIG121-Hm (Ohta S., Mita S., Hattori T., Nakamura K., Plant Cell Physiol., 31: 805–813, 1990) at XbaI (5′ end) and SalI (3′ end) sites (in the antisense direction) under the control of cauliflower mosaic virus 35S promoter. The recombinant binary vectors were introduced into Agrobacterium EHA101, and the resulting Agrobacterium was introduced into Nipponbare rice cultivar by ultrahigh-speed transformation method for monocotyledons. […] Therefore, the present inventors have succeeded in dwarfing a transformed plant in which expression of a gene that is induced by addition of a plant hormone, brassinolide, is regulated.

Row | Molecule | expression of OsBLE1 and OsBLE2 following hormone treatment [1] | time after treatment at which expression of OsBLE1 and OsBLE2 occurs / is induced ([1]; FIG. 2A) | expression level of the 12 different genes [2] | growth of stem and leaf of transformed rice compared to controls containing the vector alone [3]
1 | C=C1C[C@]23C[C@@]1(O)CC[C@H]2[C@@]12C=C[C@H](O)[C@@](C)(C(=O)O1)[C@H]2[C@@H]3C(=O)O [GA3, gibberellin] | increased |  |  | 
2 | O=C(O)Cc1c[nH]c2ccccc12 [IAA, indole-3-acetic acid] | increased |  |  | 
3 | CC(C)[C@H](C)[C@@H](O)[C@H](O)[C@@H](C)[C@H]1CC[C@H]2[C@@H]3COC(=O)[C@H]4C[C@H](O)[C@H](O)C[C@]4(C)[C@H]3CC[C@]12C [brassinolide] | increased | two to six; also recorded: one to six | markedly increased | 
4 | OsBLE2: OsBLE2 cDNA (SEQ ID NO: 3) inserted in antisense direction in binary vector pIG121-Hm under CaMV 35S promoter |  |  |  | suppressed growth of stem and leaf
5 | B1 |  |  |  | suppressed growth of stem and leaf
